These results are taken from paper PMC11190223, “Identification of sulfakinin receptor regulating feeding behavior and hemolymph trehalose homeostasis in the silkworm, Bombyx mori” (Scientific Reports, 2024).

Experiment [1] deals with BNGR-A9. The experiment in a line: Fura-2 AM-based Ca^2+ mobilization assay, BNGR-A9. It counts as cell-based, Bombyx mori. The note with it: for Effect of Gαq/PLC inhibitor on BmsSK-triggered Ca^2+ mobilization: FR900359 1 μM or U73122 5 μM. An excerpt: (§1) The entire coding region of BNGR-A9 (NM_001134272.1) was obtained by PCR and subsequently cloned into pEGFP-N1 and pCMV-Flag vectors using the primers listed in Table S1. The Flag-BNGR-A9 construct was generated for functional assays, including CRE-luciferase, calcium mobilization, and ERK phosphorylation assays, while BNGR-A9-EGFP was created for receptor visualization purposes. Additionally, for expression in the BmN cell system, the BNGR-A9 gene was inserted into the pIZT/V5-His vector. All constructs were validated by DNA sequencing.
(§2) HEK293 cells were cultured with Dulbecco’s Modified Eagle’s Medium (Gibco, NY, USA) supplied with 10% Fetal bovine serum (Gibco, NY, USA) in a 37 °C humidified incubator containing 5% CO2. BmN cells were maintained in TC 100 insect medium (AppliChem, Darmstadt, Germany) supplied with 10% Fetal bovine serum in a 28 °C incubator. Both HEK293 and BmN cells were transfected with X-tremeGENE (Roche, Mannheim, Germany) according to the manufacturer’s instruction.
To monitor the changes of intracellular calcium, Fura-2 AM (Dojindo, Kumamoto, Japan) was utilized as the calcium indicator, following the methodology outlined in a previous study. Briefly, HEK293 cells stably expressing Flag-BNGR-A9 were exposed to various concentrations of Bombyx mori neuropeptides and measured using a fluorescence spectrometer (Tecan Infinite 200 PRO). Calcium levels were determined by the ratio of fluorescence excitation at 340 nm to that at 380 nm. If necessary, cells were pre-treated with U73122, FR900359, or KT5720 for 30 min prior to the initiation of the experiment. For assays involving BmN cells expressing pIZT-BNGR-A9, the procedures were conducted at 28 °C, and HBSS was replaced with HBM (Hepes-Buffered Medium: 140 mM NaCl, 5 mM KCl, 1 mM MgCl2, 1.2 mM Na2HPO4, 5 mM NaHCO3, 10 mM glucose, and 20 mM HEPES–NaOH, CaCl2 (1 mM), pH 6.2).
(§3) Data analysis was conducted using GraphPad Prism (San Diego, CA), with results presented as mean ± SEM. Statistical significance was assessed through Student’s t-test or two-way ANOVA with multiple comparisons, with p values below 0.05 denoted as significant (*p < 0.05, **p < 0.01, ***p < 0.001). Dose–response curves were generated via non-linear curve fitting. Adobe Photoshop was used to process images, ensuring uniform brightness and contrast settings across all conditions. All images and data provided represent findings from a minimum of three independent experiments.

The subject of experiment [2] is ERK phosphorylation in silkworm brains. The experiment is described as follows: ERK phosphorylation (western blot), silkworm larval brains ex vivo. The note with it: FR900359 1 μM, 30 min; 100 nM BmsSK; silkworm larval brains. On the set-up: species or system Bombyx mori. Here is the method:
HEK293 cells with Flag-BNGR-A9 were exposed to 100 nM BmsSK for different durations and then lysed using RIPA buffer (Beyotime, China). For ex vivo assays, brains from 5th instar silkworm larvae were treated with BmsSK (100 nM) for 1, 2, or 8 h, either with a pre-treatment of Gαq inhibitor FR900359 for 30 min or without it. After treatment, samples were lysed, homogenized, and their protein concentrations were determined with a BCA protein kit (Takara, Japan). For western blot analysis, equal amounts of protein lysate were used. Protein expression was analyzed using specific primary antibodies: rabbit monoclonal antibodies for total and phosphorylated ERK from Cell Signaling Technology (MA, USA).
A general note: A western blot detects proteins with antibodies after separation by electrophoresis.

The target in experiment [3] is BNGR-A9. The experiment in a line: CRE-driven luciferase reporter assay, BNGR-A9. It counts as cell-based, Bombyx mori. The note with it: for EC50 / Activation of BNGR-A9 (CRE-driven luciferase activity): 4 h, at least three independent experiments; for EC50: dose-response; for Activation of BNGR-A9 (CRE-driven luciferase activity): 1 μM peptide, with or without forskolin (5 μM).
Description: as §1, §2
HEK293 and BmN cells were transfected with the different Bombyx receptors (Flag-BNGR-A9, -A24, -A32, or A33 for HEK293 cells, and pIZT-BNGR-A9, -A24, -A32, or A33 for BmN cells) along with the corresponding CRE-reporter plasmid. When cell confluence reached 90–95%, they were treated with various concentrations of Bombyx mori neuropeptides, with or without forskolin. Following a 4-h incubation period, cells were lysed, and luciferase activities were determined using a firefly luciferase kit (Beyotime, Shanghai, China).
as §3

The subject of experiment [4] is BNGR-A9. The experiment in a line: cAMP ELISA in BNGR-A9-expressing HEK293 cells. It counts as cell-based, Bombyx mori. The note with it: 1 μM, 15 min, IBMX pretreatment (300 μM, 1 h). Here is the method:
1. Measurement of cAMP accumulation
Cells were seeded in 24-well plates and incubated overnight. Prior to treatment, cells
were pre-treated with the phosphodiesterase inhibitor IBMX (300 μM) for 1 hour.
Subsequently, cells were treated with different Bombyx neuropeptides for 15 minutes.
The reaction was terminated by removing the medium, followed by the addition of
ice-cold PBS and a single wash. Cell lysis was performed, and cAMP formation was
assessed using a competitive binding technique based on an enzyme-linked
immunosorbent assay (ELISA) (Parameter cAMP assay, R&D, Minneapolis, USA)
following the manufacturer's instructions. The results were expressed as the fold
change in cAMP concentration compared to the control concentration in the
2. Determination of Glucose of hemolymph
Silkworm larvae were anesthetized by cooling on ice, after which hemolymph was
collected using a micropipette from an incision made at the abdominal leg.
Approximately 5 mg of phenylthiourea (to achieve a final concentration of 2.5% w/v)
was added to the hemolymph in a 1.5 ml Eppendorf tube to inhibit clotting.
Hemolymph samples from 10 insects were then centrifuged at 12,000 rpm for 10
minutes at 4 °C to sediment any particulates. The glucose concentration in the
hemolymph was determined using a glucose oxidase-peroxidase kit (Shanghai […]
by stimulation with 1μM BmnsSK or BmsSK for 15 min, and the cAMP level was determined […]

Experiment [5] relates to BNGR-A9. The experiment in a line: IP3 ELISA in BNGR-A9-expressing HEK293 cells. It counts as cell-based, Bombyx mori. The note with it: 1 μM, 1 h. As for the experimental part: Figure 6 Bombyx sulfated-sulfakinin mediated activation of BNGR-A9 via Gαq signaling pathway. (A and B) Effects of Gαq inhibitor FR900359 (1 μM) on the CRE-driven luciferase activities in BNGR-A9 expressing HEK293 (A) and BmN (B) cells. BNGR-A9 stable transfected cells were pretreated with FR900359 (1 μM) for 30 min and challenged with 100 nM BmsSK for 4 h. (C) Accumulation of IP3 in HEK293 cells expressing BNGR-A9 in response to Bombyx neuropeptides was assessed. Cells were pre-treated with serum-free DMEM for 1 h, followed by stimulation with 1 μM of the indicated Bombyx neuropeptides for 1 h. The level of IP3 in the supernatant was then determined using the IP3 immunoassay detection kit. (D, E) Effects of Gαq/PLC inhibitors on Flag-BNGR-A9 mediated increase of intracellular Ca^2+ level. Flag-BNGR-A9 expressing HEK293 (D) and BmN (E) cells were pretreated with Gαq inhibitorFR900359 (1 μM), U73122 (5 μM) for 30 min, and incubated with Fura-2 AM for 30 min, followed by challenging with 100 nM BmsSK. (F, G) effects of protein kinase A (PKA) inhibitor KT5720 on BmsSK initiated Ca^2+ in Flag-BNGR-A9-expressing cells. […] After 30 min incubation with Fura-2 AM, the cells were treated with 100 nM BmsSK, and detected with a fluorescence spectrometer. […] Data were analyzed by using a Student’s t-test (*p < 0.05; **p < 0.01). […]
(ELISA stands for enzyme-linked immunosorbent assay.)

The next experiment relates to DSK-R1 (CCKLR-17D3). The note with it: cited from earlier work. An excerpt:
Insect SKs mediate their effects via G protein-coupled receptors (GPCRs) located on the cell surface membrane. The Drosophila SK receptor (DSK-R1, also known as CCKLR-17D3) emerged as the first cloned and characterized receptor for insect SKs, displaying high affinity for tyrosine-sulfated SK (sSK) and low affinity for nonsulfated SK (nsSK)[21]. Another receptor, CCKLR-17D1, identified in Drosophila, exclusively responds to sSKs, underscoring the critical role of the sulfated tyrosine residue in SKs for receptor interaction and activity. This specificity for sSKs was also observed in the b ...

The target of experiment [6] is T1, BNGR-A9 expressed in BmN cells (pIZT-BNGR-A9) (Bombyx mori) (UniProt B3XXM2).
T1 sequence: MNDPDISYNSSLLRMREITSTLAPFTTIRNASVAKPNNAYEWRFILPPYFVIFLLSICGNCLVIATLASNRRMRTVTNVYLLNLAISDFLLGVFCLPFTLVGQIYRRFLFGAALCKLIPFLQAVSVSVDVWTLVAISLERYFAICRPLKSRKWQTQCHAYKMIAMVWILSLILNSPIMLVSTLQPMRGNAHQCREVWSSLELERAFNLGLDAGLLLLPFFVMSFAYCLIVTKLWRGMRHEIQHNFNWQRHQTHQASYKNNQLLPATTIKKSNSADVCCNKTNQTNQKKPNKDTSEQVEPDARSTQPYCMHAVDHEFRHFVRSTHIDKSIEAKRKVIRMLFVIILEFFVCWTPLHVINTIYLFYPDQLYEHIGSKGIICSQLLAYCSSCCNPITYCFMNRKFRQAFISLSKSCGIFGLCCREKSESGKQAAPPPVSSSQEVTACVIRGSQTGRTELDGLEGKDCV

For experiment [7], the target named is T2, Flag-BNGR-A9 (Bombyx mori neuropeptide G protein-coupled receptor A9) expressed in HEK293 cells (Bombyx mori) (UniProt B3XXM2).
T2 sequence: T1 sequence

The mark [8] stands for this setting: 30 min pretreatment, 100 nM BmsSK, HEK293 and BmN cells.
The mark [9] stands for this setting: CRE-driven luciferase, HEK293 and BmN cells.

“Also recorded” adds a separate entry of the source. Where no end group is shown, it is not given here. [ ]: non-standard residue; d: D form. sY = N[C@@H](Cc1ccc(OS(=O)(=O)O)cc1)C(=O)O A value given as a limit tells only on which side of the number the result lay.

With `CCCCCCOC(=O)[C@]1(O)C[C@@H]2O[C@@]1(C)n1c3ccccc3c3c4c(c5c6ccccc6n2c5c31)C(=O)NC4` [KT5720, reference compound], the “Effect of PKA inhibitor on BmsSK-induced Ca^2+ response” value in the experiment on BNGR-A9 [1] (KT5720 10 μM, 30 min pretreatment, 100 nM BmsSK, HEK293 and BmN cells) was “did not affect”.

Consider `COc1ccc2c(c1)CC[C@@H]1[C@@H]2CC[C@]2(C)[C@@H](NCCCCCCN3C(=O)C=CC3=O)CC[C@@H]12` [U73122, reference compound], for which the “Effect of Gαq/PLC inhibitor on BmsSK-triggered Ca^2+ mobilization” value in the experiment with BNGR-A9 [1] (setting [8]) is “completely blocked”.

In the case of FR900359 [reference compound], the “Effect of Gαq/PLC inhibitor on BmsSK-triggered Ca^2+ mobilization” value in the experiment with BNGR-A9 [1] (setting [8]) is on record as “completely blocked; also recorded: completely inhibited”. The “Effect of inhibitor on BmsSK-induced ERK phosphorylation” value in experiment [2] was “inhibited”.

As usually defined, the EC50 is the concentration needed to bring the measured effect to its halfway point. Molecule “GDDTFDD^8YGHLRF-NH2 [BmnsSK, Bombyx mori Non-sulfated-sulfakinin, synthetic; nonsulfated version of GDDTFDD^8YGHLRF-NH2]” displayed a concentration for a half-maximal effect (EC50) on BNGR-A9 [3] (BmN cells stably expressing BNGR-A9) of 125 nM. Besides, in the experiment with BNGR-A9 [3] (setting [9]), the “Activation efficacy relative to BmsSK” value is recorded as “less than 30%” and the “Agonist type at BNGR-A9” value is given as “partial agonist”. The “Activation of BNGR-A9 (CRE-driven luciferase activity)” value with BNGR-A9 [3] (HEK293 and BmN cells) is “could activate BNGR-A9”. This molecule yielded a half-maximal effective concentration (EC50) at BNGR-A9 [3] (HEK293 cells stably expressing BNGR-A9) of 119 nM. For the same molecule, the “Ca^2+ response” value in the experiment with BNGR-A9 [1] (1 μM peptide, Fura-2 AM, BNGR-A9-expressing HEK293 and BmN cells, three independent experiments) was “triggered responses in BNGR-A9-expressing cells”. The “Intracellular cAMP level” value in the experiment on BNGR-A9 [4] is on record as “remained unchanged”. Further, the “Intracellular IP3 level” value with BNGR-A9 [5] was “significant elevation”.

For neuropeptide F [reference compound], in the experiment on BNGR-A9 [3] (HEK293 and BmN cells), the “Activation of BNGR-A9 (CRE-driven luciferase activity)” value is listed as “did not significantly activate”.

As for “nsSK: nonsulfated SK, on Drosophila SK receptor (GDDTFDDYGHLRF-NH2)”, the “Affinity for DSK-R1” value in the experiment on DSK-R1 (CCKLR-17D3) is on record as “low affinity”.

Regarding “sSK: tyrosine-sulfated SK, on Drosophila SK receptor (GDDTFDD[sY]GHLRF-NH2; N-terminus assumed; SMILES CC(C)C[C@H](NC(=O)[C@H](Cc1c[nH]cn1)NC(=O)CNC(=O)[C@H](Cc1ccc(OS(=O)(=O)O)cc1)NC(=O)[C@H](CC(=O)O)NC(=O)[C@H](CC(=O)O)NC(=O)[C@H](Cc1ccccc1)NC(=O)[C@@H](NC(=O)[C@H](CC(=O)O)NC(=O)[C@H](CC(=O)O)NC(=O)CN)[C@@H](C)O)C(=O)N[C@@H](CCCNC(=N)N)C(=O)N[C@@H](Cc1ccccc1)C(N)=O)”, the “Affinity for DSK-R1” value in the experiment on DSK-R1 (CCKLR-17D3) is listed as “high affinity”.

As to GDDTFDDYGHLRF-NH2 [Bombyx mori Non-sulfated-sulfakinin], in experiment [6], the CRE-driven luciferase reporter, activation efficacy relative to BmsSK, BmN cells is < 30 % of BmsSK and the CRE-driven luciferase reporter, dose-response, BmN cells stably expressing BNGR-A9 amounted to 125 nM. In addition, in experiment [7], the CRE-driven luciferase reporter, activation efficacy relative to BmsSK, HEK293 cells is < 30 % of BmsSK and the CRE-driven luciferase reporter, dose-response, HEK293 cells stably expressing BNGR-A9 was determined as 119 nM.
